One assay relates to leukemia NB4 cells. As to the kind of experiment: Cell death induction in NB4 cells (FACS, pre-G1). Type of assay: cell-based, human. Particulars: for % Cell death NB4 cells: 3 μM, 30 h; for effect on cell death, single inhibitor: C646 5 µM, GSK126 10 µM, used separately.
Assay [1] concerns neuroblastoma SHSY5Y cells. As to the kind of experiment: Cell death induction in SHSY5Y cells. Particulars: 3 μM, 48 h. Type of assay: cell-based. Here is the method:
When tested in neuroblastoma SHSY5Y cells at tetrahydro-4H -pyran-4-one MC2912 failed in inducing
3 μM for 48 h, MC2884 and its analogues furnished cell death in SHSY5Y cells, whereas its thio-analogue
(Supplementary SAR Table 1). In general, the SHSY5Y similarly to what observed in NB4 cells.
than NB4 cells. Anyway, also in this cell line the death in both cell lines such as MC2910, 2912, 2909,
(MC2909), and bis 3,5-dibromophenyl (MC2910) were acetylation and EZH2 deregulation (SAR Figure 2). In […]
3-phenyl-1-propan-1-one chain at N1 (MC3187), which 3).

For the next assay, the target named is GCN5 (Homo sapiens, UniProt Q92830). As to the kind of experiment: HAT in vitro assay, 10-dose IC50, GCN5. Particulars: substrate Histone H3, 3 μM Acetyl-CoA; read-out: Compound IC50 GCN5. The assay is classed as biochemical. As to the method:
(§1) For HAT in vitro assay, MC2884 activity was also tested in vitro and IC50 was calculated as indicated in the scheme. […] Reactions were carried out at 3 μM Acetyl-CoA. Empty cells indicate no inhibition or compound activity that could not be fit to an IC50 curve.

The next assay concerns the target pCAF (Homo sapiens, UniProt Q92831). As to the kind of experiment: HAT in vitro assay, 10-dose IC50, pCAF. Particulars: substrate Histone H3, 3 μM Acetyl-CoA; read-out: Compound IC50 pCAF. Type of assay: biochemical. As to the method:
as §1

The next assay deals with KAT5 (Homo sapiens, UniProt Q92993). As to the kind of experiment: HAT in vitro assay, 10-dose IC50, KAT5. Type of assay: biochemical. Particulars: substrate Histone H2A, 3 μM Acetyl-CoA; read-out: Compound IC50 KAT5. Here is the method: as §1
For another assay, the target named is CBP (Homo sapiens, UniProt Q92793). As to the kind of experiment: HAT in vitro assay, 10-dose IC50, CBP. Type of assay: biochemical. Particulars: substrate Histone H3, 3 μM Acetyl-CoA; read-out: Compound IC50 CBP. As to the method:
as §1

Sequence of GCN5 (Q92830 whole entry): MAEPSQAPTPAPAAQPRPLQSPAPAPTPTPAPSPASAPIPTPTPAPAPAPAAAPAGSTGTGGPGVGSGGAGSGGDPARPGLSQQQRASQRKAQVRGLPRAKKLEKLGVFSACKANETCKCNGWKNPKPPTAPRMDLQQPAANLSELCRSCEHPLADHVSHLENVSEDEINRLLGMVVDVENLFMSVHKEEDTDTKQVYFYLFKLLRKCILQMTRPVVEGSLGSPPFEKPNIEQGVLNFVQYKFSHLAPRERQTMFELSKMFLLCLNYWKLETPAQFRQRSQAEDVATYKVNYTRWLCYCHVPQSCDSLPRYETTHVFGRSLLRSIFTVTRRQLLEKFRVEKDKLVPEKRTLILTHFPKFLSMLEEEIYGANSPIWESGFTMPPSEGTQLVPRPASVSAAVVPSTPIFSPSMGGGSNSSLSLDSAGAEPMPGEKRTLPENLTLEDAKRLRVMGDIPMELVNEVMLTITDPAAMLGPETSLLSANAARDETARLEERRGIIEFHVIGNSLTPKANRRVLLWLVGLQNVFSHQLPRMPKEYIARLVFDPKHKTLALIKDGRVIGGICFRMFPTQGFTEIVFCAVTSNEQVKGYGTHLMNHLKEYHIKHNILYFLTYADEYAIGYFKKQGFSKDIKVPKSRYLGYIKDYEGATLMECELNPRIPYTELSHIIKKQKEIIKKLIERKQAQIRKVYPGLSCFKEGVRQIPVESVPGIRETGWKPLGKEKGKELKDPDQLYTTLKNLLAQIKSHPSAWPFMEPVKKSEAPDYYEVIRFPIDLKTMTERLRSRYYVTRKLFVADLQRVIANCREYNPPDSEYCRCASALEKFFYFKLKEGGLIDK
Sequence of pCAF (Q92831 whole entry): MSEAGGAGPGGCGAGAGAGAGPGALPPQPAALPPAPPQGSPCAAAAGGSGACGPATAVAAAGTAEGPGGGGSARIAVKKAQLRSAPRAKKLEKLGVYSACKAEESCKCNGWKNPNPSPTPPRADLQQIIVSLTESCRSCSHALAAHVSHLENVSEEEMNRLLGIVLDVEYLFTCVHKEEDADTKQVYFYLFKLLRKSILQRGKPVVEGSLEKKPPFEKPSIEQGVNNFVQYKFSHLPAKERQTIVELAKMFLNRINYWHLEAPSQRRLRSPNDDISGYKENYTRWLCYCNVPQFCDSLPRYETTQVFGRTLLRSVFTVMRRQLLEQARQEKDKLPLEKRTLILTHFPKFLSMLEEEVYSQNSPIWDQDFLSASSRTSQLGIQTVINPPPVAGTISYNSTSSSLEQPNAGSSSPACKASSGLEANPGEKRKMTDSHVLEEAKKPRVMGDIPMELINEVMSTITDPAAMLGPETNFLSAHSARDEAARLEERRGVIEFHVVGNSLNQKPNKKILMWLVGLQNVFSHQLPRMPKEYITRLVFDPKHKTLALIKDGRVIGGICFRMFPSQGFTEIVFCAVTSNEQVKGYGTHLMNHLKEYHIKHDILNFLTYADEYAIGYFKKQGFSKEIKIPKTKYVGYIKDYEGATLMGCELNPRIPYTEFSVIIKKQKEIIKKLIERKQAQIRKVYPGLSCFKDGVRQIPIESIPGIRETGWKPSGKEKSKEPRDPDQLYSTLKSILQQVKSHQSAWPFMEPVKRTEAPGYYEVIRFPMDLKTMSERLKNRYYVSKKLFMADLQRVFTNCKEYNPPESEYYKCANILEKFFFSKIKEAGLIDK
Sequence of CBP (Q92793 whole entry): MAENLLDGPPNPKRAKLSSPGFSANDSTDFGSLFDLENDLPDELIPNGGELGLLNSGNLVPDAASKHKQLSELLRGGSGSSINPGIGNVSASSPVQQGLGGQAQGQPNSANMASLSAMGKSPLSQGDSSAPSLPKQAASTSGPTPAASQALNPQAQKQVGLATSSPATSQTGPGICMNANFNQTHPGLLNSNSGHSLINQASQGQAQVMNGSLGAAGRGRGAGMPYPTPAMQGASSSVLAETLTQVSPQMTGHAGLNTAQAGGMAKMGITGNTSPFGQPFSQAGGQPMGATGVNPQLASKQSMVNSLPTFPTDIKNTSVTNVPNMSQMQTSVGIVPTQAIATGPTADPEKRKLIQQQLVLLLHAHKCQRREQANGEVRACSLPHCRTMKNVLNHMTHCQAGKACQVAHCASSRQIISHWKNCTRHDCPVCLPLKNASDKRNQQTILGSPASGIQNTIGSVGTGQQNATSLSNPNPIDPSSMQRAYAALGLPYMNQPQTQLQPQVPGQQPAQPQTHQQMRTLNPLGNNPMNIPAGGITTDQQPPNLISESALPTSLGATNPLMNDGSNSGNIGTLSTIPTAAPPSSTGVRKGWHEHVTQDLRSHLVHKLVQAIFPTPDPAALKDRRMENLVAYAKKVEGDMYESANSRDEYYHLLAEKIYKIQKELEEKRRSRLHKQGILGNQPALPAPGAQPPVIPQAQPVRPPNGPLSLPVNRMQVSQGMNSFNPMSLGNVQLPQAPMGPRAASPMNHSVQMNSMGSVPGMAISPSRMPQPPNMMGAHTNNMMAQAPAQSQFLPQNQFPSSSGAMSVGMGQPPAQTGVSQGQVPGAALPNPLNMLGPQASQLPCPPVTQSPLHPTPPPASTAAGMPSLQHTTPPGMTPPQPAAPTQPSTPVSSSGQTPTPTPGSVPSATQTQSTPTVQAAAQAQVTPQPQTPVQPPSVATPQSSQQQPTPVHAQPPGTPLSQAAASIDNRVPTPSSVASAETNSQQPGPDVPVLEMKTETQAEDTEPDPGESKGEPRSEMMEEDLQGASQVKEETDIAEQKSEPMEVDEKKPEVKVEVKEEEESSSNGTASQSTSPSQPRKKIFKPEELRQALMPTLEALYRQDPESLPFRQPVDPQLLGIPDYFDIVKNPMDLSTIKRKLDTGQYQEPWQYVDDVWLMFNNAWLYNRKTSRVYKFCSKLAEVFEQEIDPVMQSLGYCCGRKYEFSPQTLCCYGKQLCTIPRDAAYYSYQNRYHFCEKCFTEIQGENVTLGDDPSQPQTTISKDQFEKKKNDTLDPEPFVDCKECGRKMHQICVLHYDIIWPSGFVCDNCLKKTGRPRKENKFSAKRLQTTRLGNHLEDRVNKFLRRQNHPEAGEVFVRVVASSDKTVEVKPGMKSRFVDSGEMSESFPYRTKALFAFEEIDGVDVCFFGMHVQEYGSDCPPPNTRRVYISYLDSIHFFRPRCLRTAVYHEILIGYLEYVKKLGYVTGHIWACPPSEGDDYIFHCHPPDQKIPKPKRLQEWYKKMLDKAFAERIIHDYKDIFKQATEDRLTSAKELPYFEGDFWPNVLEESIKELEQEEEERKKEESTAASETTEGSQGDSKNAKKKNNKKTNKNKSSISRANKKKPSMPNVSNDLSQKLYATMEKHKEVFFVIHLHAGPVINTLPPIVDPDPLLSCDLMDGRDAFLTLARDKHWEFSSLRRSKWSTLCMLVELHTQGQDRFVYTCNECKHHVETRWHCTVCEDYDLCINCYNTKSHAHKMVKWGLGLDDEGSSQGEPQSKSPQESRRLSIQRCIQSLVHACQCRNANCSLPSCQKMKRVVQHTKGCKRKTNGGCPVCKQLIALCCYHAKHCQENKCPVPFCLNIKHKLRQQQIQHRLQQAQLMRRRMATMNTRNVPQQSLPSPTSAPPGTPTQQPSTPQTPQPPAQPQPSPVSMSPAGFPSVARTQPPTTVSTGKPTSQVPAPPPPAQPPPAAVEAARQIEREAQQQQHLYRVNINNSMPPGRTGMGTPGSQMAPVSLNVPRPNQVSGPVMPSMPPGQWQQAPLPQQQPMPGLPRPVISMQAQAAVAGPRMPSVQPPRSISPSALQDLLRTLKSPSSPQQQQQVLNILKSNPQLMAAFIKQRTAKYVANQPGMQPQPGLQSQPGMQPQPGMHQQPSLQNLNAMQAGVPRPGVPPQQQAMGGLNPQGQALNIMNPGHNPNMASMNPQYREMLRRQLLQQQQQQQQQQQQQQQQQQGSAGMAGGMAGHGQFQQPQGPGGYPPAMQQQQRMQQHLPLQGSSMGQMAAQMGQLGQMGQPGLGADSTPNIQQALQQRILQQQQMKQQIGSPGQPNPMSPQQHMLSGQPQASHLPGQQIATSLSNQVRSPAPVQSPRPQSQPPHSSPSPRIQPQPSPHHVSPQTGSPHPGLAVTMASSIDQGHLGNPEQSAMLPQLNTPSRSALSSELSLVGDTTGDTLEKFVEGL
Sequence of KAT5 (Q92993 whole entry): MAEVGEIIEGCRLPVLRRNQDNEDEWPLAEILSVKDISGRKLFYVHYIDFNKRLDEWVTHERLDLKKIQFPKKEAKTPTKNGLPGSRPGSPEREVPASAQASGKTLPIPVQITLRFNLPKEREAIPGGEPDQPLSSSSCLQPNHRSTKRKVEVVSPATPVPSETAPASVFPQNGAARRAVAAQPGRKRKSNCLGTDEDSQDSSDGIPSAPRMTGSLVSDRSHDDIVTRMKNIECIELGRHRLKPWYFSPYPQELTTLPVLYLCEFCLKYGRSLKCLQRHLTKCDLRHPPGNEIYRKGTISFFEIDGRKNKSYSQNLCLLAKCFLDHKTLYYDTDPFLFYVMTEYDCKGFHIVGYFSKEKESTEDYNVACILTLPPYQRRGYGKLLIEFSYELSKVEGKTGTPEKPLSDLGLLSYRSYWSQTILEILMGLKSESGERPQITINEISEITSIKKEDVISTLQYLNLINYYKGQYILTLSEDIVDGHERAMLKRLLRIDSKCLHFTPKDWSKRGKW

As to `O=C1C(=Cc2cccc(Br)c2)CN(C(=O)c2ccccc2)CC1=Cc1cccc(Br)c1` [MC3146], the “% Cell death NB4 cells” value in the assay with leukemia NB4 cells came out at 13.2%. For the same molecule, the “% Cell death SHSY5Y cells” value in assay [1] is 5.6%. On to `O=C(/C=C/c1ccc(Br)cc1)/C=C/c1ccc(Br)cc1` [MC2886], for which the “% Cell death NB4 cells” value in the assay on leukemia NB4 cells is given as 0,56%. Also, in assay [1], the “% Cell death SHSY5Y cells” value is reported as 1,2%. For the molecule `CN1CC(=Cc2cccc(Br)c2)C(=O)C(=Cc2cccc(Br)c2)C1` [MC2914], the “% Cell death NB4 cells” value in the assay on leukemia NB4 cells is given as 36%. Moreover, the “% Cell death SHSY5Y cells” value in assay [1] is listed as 9.0%.

As for `O=C1C(=Cc2cccc(Br)c2)CN(C(=O)CCc2ccccc2)CC1=Cc1cccc(Br)c1` [MC3187], the “% Cell death NB4 cells” value in the assay on leukemia NB4 cells is listed as 28.9%. Moreover, the “% Cell death SHSY5Y cells” value in assay [1] was 19.9%. Turning to `O=C1C(=Cc2cccc(Br)c2)CN(CC(=O)c2ccccc2)CC1=Cc1cccc(Br)c1` [MC3207], the “% Cell death NB4 cells” value in the assay with leukemia NB4 cells stood at 38%. Besides, in assay [1], the “% Cell death SHSY5Y cells” value is on record as 7.0%. Consider `CC[C@H](C)n1cc(C)c2c(C(=O)NCc3c(C)cc(C)[nH]c3=O)cc(-c3ccc(N4CCNCC4)nc3)cc21` [GSK126, reference compound], for which the “effect on cell death, single inhibitor” value in the assay with leukemia NB4 cells (NB4 cells) is on record as “no effects”. `CN(C)CC[C@H](CSc1ccccc1)Nc1ccc(S(=O)(=O)NC(=O)c2ccc(N3CCN(Cc4ccccc4-c4ccc(Cl)cc4)CC3)cc2)cc1[N+](=O)[O-]` [ABT-737, reference compound]: the “cell death, ABT-737 with addition of MC2884” value in the assay on leukemia NB4 cells (NB4 cells, ABT-737 1 µM plus MC2884 at concentrations that alone induced little apoptosis) is recorded as “up to 60%”. Consider `O=C1C(=Cc2ccc(Br)cc2)CN(Cc2ccccc2)CC1=Cc1ccc(Br)cc1` [MC2909], for which the “% Cell death NB4 cells” value in the assay on leukemia NB4 cells stood at 8.8%. For the same molecule, the “% Cell death SHSY5Y cells” value in assay [1] turned out to be 4.7%.

Regarding `O=C1C(=Cc2cccc(Br)c2)CSCC1=Cc1cccc(Br)c1` [MC2913], the “% Cell death NB4 cells” value with leukemia NB4 cells is recorded as 52.7%. Moreover, in assay [1], the “% Cell death SHSY5Y cells” value was 23.9%. In the same order, the values of `O=C1C(=Cc2cccc(Br)c2)CN(CCc2ccccc2)CC1=Cc1cccc(Br)c1` [MC3269] are 62.5% and 19.2%. As to `O=C1C(=Cc2ccccc2Br)CN(Cc2ccccc2)CC1=Cc1ccccc1Br` [MC2908], in the assay with leukemia NB4 cells, the “% Cell death NB4 cells” value is listed as 30.3%. Moreover, in assay [1], the “% Cell death SHSY5Y cells” value is given as 9.2%.

A word on the IC50: it is the concentration at which inhibition is half-maximal. Regarding `CCCCCCCCCCCCCCCc1cccc(O)c1C(=O)O` [Anacardic Acid], the values for the IC50 at GCN5 and on pCAF were 38.6 µM and 38.8 µM, respectively.

On to `O=C1/C(=C/c2cccc(Br)c2)CCC/C1=C\c1cccc(Br)c1` [MC2911], for which the “% Cell death NB4 cells” value in the assay with leukemia NB4 cells is reported as 0,76%. Further, in assay [1], the “% Cell death SHSY5Y cells” value is 0,8%. In the same order, the values of `O=C1/C(=C/c2ccc(O)cc2Br)CN(Cc2ccccc2)C/C1=C\c1ccc(O)cc1Br` [MC3395] are 0,53% and 1,0%. `CC1=NN(c2ccc(C(=O)O)cc2)C(=O)/C1=C\c1ccc(-c2cc(C)c(C)cc2[N+](=O)[O-])o1` [C646, reference compound]: the “effect on cell death, single inhibitor” value with leukemia NB4 cells (NB4 cells) is on record as “no effects”. Besides, the IC50 on KAT5 came to 20.4 µM; at CBP, 78.7 nM.

Source of the values: article PMC5986654, “Combined HAT/EZH2 modulation leads to cancer-selective cell death” (Oncotarget, 2018).
